Source: PMC11271627, “Molecular dynamics-guided optimization of BGM0504 enhances dual-target agonism for combating diabetes and obesity” (Scientific Reports, 2024)

Legend:
Human GLP-1R = target: T1, Human GLP-1R (Homo sapiens, UniProt P43220); assay: cAMP accumulation assay, GLP-1R; type: cell-based
T1 construct: expressed in transfected cells; host or cells: HEK293 cells
Experimental: (§1) These cells were then resuspended in 5 mL of the assay buffer, and their concentration was determined using a Vi-Cell Counter. […] Samples were subsequently added to the assay plate along with ECHO555. […] A volume of 10 µL of the cell suspension was added to the assay plate, with a density of 1000 cells/well for GLP-1R testing and 2000 cells/well for GIPR testing. The assay plate was then incubated in a 23°C incubator for 30 minutes. A starting concentration of 800 nM was used to prepare the cAMP standard curve, followed by a 4-fold 10-point serial dilution. These serially diluted cAMP standards were added to the assay plate at a volume of 10 µL/well. Subsequently, 10 µL of the cAMP detection solution was added to the assay plate, and the plate was incubated at room temperature for 1 hour, shielded from direct light. […] For data analysis, each data point’s cAMP level (nM) was calculated using the established cAMP standard curve. The percentage activity for each data point was determined using the formula: % Activity = (cAMP level of testing sample - average cAMP level of low control) / ([…] cAMP level of high control - average cAMP level of […] control) × 100%. Additionally, the ‘log(agonist) vs. response – variable slope’ model in GraphPad Prism 5.0 was used to fit the dose-response curve of each sample and calculate the EC50 value.

Human GIPR = target: T2, Human GIPR (Homo sapiens, UniProt P48546); assay: cAMP accumulation assay, GIPR; type: cell-based
T2 construct: expressed in transfected cells; host or cells: CHO cells
T2 sequence (P48546 22-466): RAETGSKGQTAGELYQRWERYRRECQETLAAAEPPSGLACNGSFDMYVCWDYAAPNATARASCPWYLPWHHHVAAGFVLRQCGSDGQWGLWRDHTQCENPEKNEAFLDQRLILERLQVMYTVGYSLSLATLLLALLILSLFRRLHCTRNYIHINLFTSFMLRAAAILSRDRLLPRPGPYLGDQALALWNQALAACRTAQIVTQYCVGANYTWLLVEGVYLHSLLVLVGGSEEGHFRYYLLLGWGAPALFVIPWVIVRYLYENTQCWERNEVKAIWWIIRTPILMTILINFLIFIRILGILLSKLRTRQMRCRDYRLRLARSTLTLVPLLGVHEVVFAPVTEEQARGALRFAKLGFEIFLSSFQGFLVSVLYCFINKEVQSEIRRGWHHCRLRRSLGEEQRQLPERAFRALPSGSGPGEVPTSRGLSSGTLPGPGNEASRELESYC
Experimental: as §1

in vivo = assay: in vivo; parameters: species or system cynomolgus monkeys; settings: cynomolgus monkey
Experimental: In this trial, 24 cynomolgus monkeys (12 of each sex) were provided by Hainan Jingang Biotechnology Co., Ltd. Each animal was identified using a unique code on the chest and cage box, and its health status was confirmed by the veterinary team of WuXi AppTec Suzhou Drug Development Co., Ltd. before use. Temperature and humidity were monitored in the animal room, with data recorded daily to ensure that the relative humidity was maintained at 40%–70% and the temperature stayed between 18–26°C. The ventilation was set to 10–20 exchanges per hour, and a 12-hour alternating light-dark cycle was adopted. Regular growth feed was provided daily, and the animals had constant access to water. Additionally, the test animals were provided with fruit daily to meet their nutritional needs. The 24 cynomolgus monkeys were randomly divided into four groups, with three monkeys of each sex per group. Animals in group 1 received a single intravenous bolus of 0.1 mg/kg BGM0504, while groups 2, 3, and 4 received a single subcutaneous injection of 0.2, 1, and 5 mg/kg BGM0504 in 20 mM citrate buffer solution (pH=7.0±0.2), respectively. Blood samples for pharmacokinetic (PK) analysis were collected at specific time points (0.5, 1, 4, 6, 8, 12, 24, 48, 72, 96, 120, 168, 240, and 312 hours) before and after dosing. At the same time, blood glucose levels were measured at 0.5, 4, 24, 48, and 72 hours after dosing. The collected blood samples were transferred to labeled commercial tubes containing K2-EDTA (0.85–1.15 mg), gently inverted several times to ensure mixing, and immediately placed on wet ice. Within 60 minutes of blood collection, the samples were centrifuged for 10 minutes at 3200×g at 2°–8°C. Plasma was divided into two aliquots (one for analysis and one for later use), transferred to labeled polypropylene tubes, immediately snap-frozen vertically in dry ice, and stored in an ultra-low temperature freezer at -60°C or lower until transported to the Drug Evaluation Department of WuXi AppTec Shanghai Drug Development Co., Ltd. for LC-MS/MS analysis.

T1 sequence (P43220 24-463): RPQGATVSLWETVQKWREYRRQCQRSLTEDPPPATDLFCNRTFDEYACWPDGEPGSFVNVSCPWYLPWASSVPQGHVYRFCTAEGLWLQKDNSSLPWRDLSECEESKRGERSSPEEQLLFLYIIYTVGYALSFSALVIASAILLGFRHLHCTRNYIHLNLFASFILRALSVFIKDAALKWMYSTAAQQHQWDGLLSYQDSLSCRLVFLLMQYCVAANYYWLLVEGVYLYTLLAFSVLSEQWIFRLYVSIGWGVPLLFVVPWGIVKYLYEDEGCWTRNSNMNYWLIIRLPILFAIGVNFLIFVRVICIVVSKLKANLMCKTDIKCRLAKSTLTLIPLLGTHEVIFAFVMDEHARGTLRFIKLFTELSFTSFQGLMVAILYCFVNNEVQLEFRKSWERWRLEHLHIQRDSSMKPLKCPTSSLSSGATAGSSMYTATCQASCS

`CC[C@H](C)[C@H](NC(=O)[C@H](CC(C)C)NC(=O)[C@H](Cc1c[nH]c2ccccc12)NC(=O)[C@H](CCC(N)=O)NC(=O)[C@@H](NC(=O)[C@H](Cc1ccccc1)NC(=O)[C@H](C)NC(=O)[C@H](CCCCN)NC(=O)[C@H](CCC(N)=O)NC(=O)[C@H](C)NC(=O)[C@@H](NC(=O)[C@H](CCCCN)NC(=O)[C@H](CC(=O)O)NC(=O)[C@H](CC(C)C)NC(=O)C(C)(C)NC(=O)[C@@H](NC(=O)[C@H](CO)NC(=O)[C@H](Cc1ccc(O)cc1)NC(=O)[C@H](CC(=O)O)NC(=O)[C@H](CO)NC(=O)[C@@H](NC(=O)[C@H](Cc1ccccc1)NC(=O)[C@@H](NC(=O)CNC(=O)[C@H](CCC(=O)O)NC(=O)C(C)(C)NC(=O)[C@@H](N)Cc1ccc(O)cc1)[C@@H](C)O)[C@@H](C)O)[C@@H](C)CC)[C@@H](C)CC)C(C)C)C(=O)N[C@@H](C)C(=O)NCC(=O)NCC(=O)N1CCC[C@H]1C(=O)N[C@@H](CO)C(=O)N[C@@H](CO)C(=O)NCC(=O)N[C@@H](C)C(=O)N1CCC[C@H]1C(=O)N1CCC[C@H]1C(=O)N1CCC[C@H]1C(=O)N[C@@H](CO)C(=O)N[C@@H](CCCCNC(=O)COCCOCCOCCNC(=O)COCCOCCOCCNC(=O)CC[C@H](NC(=O)CCCCCCCCCCCCCCCCCCC(=O)O)C(=O)O)C(N)=O` [BGM0504] gave an EC50 (Human GLP-1R; HEK293 cells with high expression of GLP-1 receptor, 1000 cells/well, 30 min 23°C, geometric mean ± SEM, n = 3) of 0.031 nM, an Emax (Human GLP-1R; HEK293 cells, relative to 10 nM GLP-1(7–37) high control, arithmetic mean ± SEM) of 92.7 ± 7.6% and an EC50 (Human GIPR) of 0.182 nM. For the same molecule, the Emax (Human GIPR; CHO) was 106 ± 7.9%, the AUC(0-inf) (in vivo; both sexes, iv, 0.1 mg/kg) was 81.1 µg·h/mL and the AUC(0-t) (in vivo; both sexes, iv, 0.1 mg/kg) was 80.4 µg·h/mL. It also gave a C0 (in vivo; both sexes, iv, 0.1 mg/kg) of 2860 ± 261 ng/mL, a Vd (in vivo; both sexes, iv, 0.1 mg/kg) of 0.0608 ± 0.005 L/kg and a clearance (in vivo; both sexes, iv, 0.1 mg/kg) of 1.24 ± 0.132 mL/h/kg. The half-life (in vivo; both sexes, iv, 0.1 mg/kg) was 37.9 ± 2.5 h, the AUC(0-inf) (in vivo; both sexes, sc, 0.2 mg/kg) was 113 µg·h/mL and the AUC(0-t) (in vivo; both sexes, sc, 0.2 mg/kg) was 113 µg·h/mL. The Cmax (in vivo; both sexes, sc, 0.2 mg/kg) was 1440 ± 109 ng/mL, the Tmax (in vivo; both sexes, sc, 0.2 mg/kg) was 16 ± 6.2 h and the bioavailability (in vivo; both sexes, sc, 0.2 mg/kg) was 69.7%. The half-life (in vivo; both sexes, sc, 0.2 mg/kg) was 38.7 ± 1.8 h, the AUC(0-inf) (in vivo; both sexes, sc, 1 mg/kg) was 491 µg·h/mL and the AUC(0-t) (in vivo; both sexes, sc, 1 mg/kg) was 488 µg·h/mL. For the same molecule, the Cmax (in vivo; both sexes, sc, 1 mg/kg) was 5970 ± 1090 ng/mL, the Tmax (in vivo; both sexes, sc, 1 mg/kg) was 22 ± 14 h and the bioavailability (in vivo; both sexes, sc, 1 mg/kg) was 60.5%. For the same molecule, the half-life (in vivo; both sexes, sc, 1 mg/kg) was 41.7 ± 2.9 h, the AUC(0-inf) (in vivo; both sexes, sc, 5 mg/kg) was 2740 µg·h/mL and the AUC(0-t) (in vivo; both sexes, sc, 5 mg/kg) was 2720 µg·h/mL. The Cmax (in vivo; both sexes, sc, 5 mg/kg) was 33500 ng/mL, the Tmax (in vivo; both sexes, sc, 5 mg/kg) was 20 ± 6.2 h and the bioavailability (in vivo; both sexes, sc, 5 mg/kg) was 67.6%. It also gave a half-life (in vivo; both sexes, sc, 5 mg/kg) of 43.4 ± 5.9 h, a Tmax (in vivo) of 16 to 22 h and an AUC0-24 (in vivo; iv, 0.1 mg/kg) of 34.6 µg·h/mL. For the same molecule, the “AUC0–last (as headed in Table 1)” value (in vivo; iv, 0.1 mg/kg) was 34,600 ± 2470 ng h/mL, the “AUC0–∞ (as headed in Table 1)” value (in vivo; iv, 0.1 mg/kg) was 80,400 ± 7880 ng h/mL and the AUC0-24 (in vivo; sc, 0.2 mg/kg) was 26.1 µg·h/mL. The “AUC0–last (as headed in Table 1)” value (in vivo; sc, 0.2 mg/kg) was 26,100 ± 1740 ng h/mL, the “AUC0–∞ (as headed in Table 1)” value (in vivo; sc, 0.2 mg/kg) was 113,000 ± 7940 ng h/mL and the AUC0-24 (in vivo; sc, 1 mg/kg) was 109 µg·h/mL. For the same molecule, the “AUC0–last (as headed in Table 1)” value (in vivo; sc, 1 mg/kg) was 109,000 ± 21,900 ng h/mL, the “AUC0–∞ (as headed in Table 1)” value (in vivo; sc, 1 mg/kg) was 488,000 ± 51,200 ng h/mL and the AUC0-24 (in vivo; sc, 5 mg/kg) was 603 µg·h/mL. The “AUC0–last (as headed in Table 1)” value (in vivo; sc, 5 mg/kg) was 603,000 ± 94,200 ng h/mL and the “AUC0–∞ (as headed in Table 1)” value (in vivo; sc, 5 mg/kg) was 2,720,000 ± 246,000 ng h/mL.
